In patent US9295247B2, “Method of using insect bait station” (ECOLAB USA INC., priority 2008, dated 2016):

What was measured:
bed bugs [1] = test: Example 2: bed bug mortality after exposure to solutions of minimum risk (25(b)) pesticides via artificial membrane feeding system; type: in vivo; conditions: for efficacy against bed bugs: exposed to lower concentrations of the solutions; for level of efficacy against bed bugs relative to the other solutions: within 120 hours of exposure
Procedure: To determine whether consumption of ingredients listed under section 25(b) of the Federal Insecticide, Fungicide, and Rodenticide Act kills bed bugs, several mixtures of salt, citric acid, potassium sorbate, sodium lauryl sulfate (SLS), castor oil, sesame oil, cinnamon oil, garlic oil, citronella oil, lemongrass oil, peppermint oil, cedar oil, clove oil, rosemary oil, thyme oil, geranium oil, geraniol, and flaxseed oil were made. Oil based solutions were dissolved into 2% sodium lauryl sulfate (“SLS”) and water mixtures. Remaining ingredients were dissolved in water. Concentrations of 1%, 5%, and 50% of each solution were made. Control solutions consisted of either human blood or water depending on the test solutions in each experiment. Groups of twenty bed bugs were offered each solution via the artificial membrane feeding system described above for 60 minutes. […] Post-exposure mortality was recorded at 24 hours and 120 hours after exposure to the active solution.

bed bugs [2] = system: bed bugs
Procedure: For the following Examples an artificial membrane feeding station was prepared and used. […] The Parafilm™ was stretched to <5.0 mils thick. The liquid bait identified in the various Examples below was placed in the sealed container.
Each solution was offered to groups of 20 bed bugs via the artificial feeding stations described above. After approximately 60 minutes, the containers of 20 bed bugs were removed from the feeding station and the number that fed to completion was recorded. Post-exposure mortality was recorded at 4 hours, 24 hours and/or 48 hours after exposure to the active solution.

bed bugs [3] = test: Example 1: post-consumption mortality of bed bugs fed on solutions via artificial membrane feeding system; type: in vivo; conditions: solution of 0.05 grams boric acid and 4.95 milliliters phosphate buffer pH 7.4; within 24 hours
From the text: Boric acid is an insecticidal dust that causes death upon consumption by most insects with chewing mouthparts. Bed bugs have blood-feeding, piercing/sucking mouthparts that limit their ability to pick up and consume the insecticidal dust in its powder form. To determine whether consumption of boric acid kills bed bugs, several mixtures of boric acid and phosphate buffer, DUPONT™ ADVION™ fire ant bait including indoxacarb and phosphate buffer, and just phosphate buffer solutions were made. […] Multiple groups of ten bed bugs fed on the solutions via artificial membrane feeding systems as described above, and post-consumption mortality was recorded. […]

bed bugs [4] = test: Example 3: feeding and mortality of bed bugs offered varying concentrations of sodium chloride in water; type: in vivo
From the text: To determine optimum concentrations of sodium chloride solutions (for both feeding and mortality), bed bugs were offered the following concentrations sodium chloride diluted in water on a weight percent basis: 0, 0.05, 0.25, 0.5%, 1%, 2%, 3%, 4%, 5%, 6%, 7%, 8%, 9%, 10%, 12%, 14%, 16%, 18%, 20%, 25%, 30%, 35%, 40%, 50%, 60%, 70%, 80%, 90%, and 100%.

## CC(C)=CCC/C(C)=C/CO [geraniol oil, geraniol]
Bed bugs [1]
  efficacy against bed bugs: some efficacy

## O=C(O)CC(O)(CC(=O)O)C(=O)O [citric acid]
Bed bugs [1]
  efficacy against bed bugs: some efficacy
  level of efficacy against bed bugs relative to the other solutions: highest observed levels of efficacy

## C/C=C/C=C/C(=O)[O-].[K+] [potassium sorbate]
Bed bugs [1]; within 120 hours, bed bugs that consumed the solutions, concentrations of 1%, 5%, 50% made
  efficacy: 0%

## OB(O)O [boric acid]
Bed bugs [2]; 5% boric acid added to the sodium chloride solution
  increase in mortality: 25-60%
Bed bugs [2]; addition of 5% boric acid
  effect on mortality compared to sodium chloride base solutions without boric acid: significantly enhanced mortality
Bed bugs [3]
  efficacy on bed bugs that consumed the solution: 100%

## [Cl-].[Na+] [sodium chloride]
Bed bugs [4]; all sodium chloride solutions up to 70% wt. sodium chloride
  mortality: some level of mortality
Bed bugs [4]; just from bed bugs tasting the solutions
  sodium chloride concentration up to which death was recorded: up to 70 weight percent
Bed bugs [4]; sodium chloride in water, offered about 60 minutes
  sodium chloride concentration up to which bed bugs feed to completion or engorge: up to 5%
Bed bugs [4]; solutions containing 6-12% wt. sodium chloride, within 48 hours
  highest levels of mortality: up to 70%
Bed bugs [4]; solutions of sodium chloride and water
  sodium chloride concentration up to which bed bugs fully engorge themselves: up to 5 weight percent
Bed bugs [1]
  efficacy against bed bugs: some efficacy
  level of efficacy against bed bugs relative to the other solutions: highest observed levels of efficacy

## CCCCCCCCCCCCOS(=O)(=O)[O-].[Na+] [SLS, sodium lauryl sulfate]
Bed bugs [1]
  efficacy against bed bugs: some efficacy
  level of efficacy against bed bugs relative to the other solutions: highest observed levels of efficacy
